ChEMBL document CHEMBL4808180, “Identification of 2,2-Dimethylbutanoic Acid (HST5040), a Clinical Development Candidate for the Treatment of Propionic Acidemia and Methylmalonic Acidemia” (J Med Chem, 2021)
The source made the active and inactive calls. The rule behind the calls is not given here.

Key:
[1] = Reduction of acetyl carnitine in human hepatocytes derived from propionic acidemia patient pretreated for 30 mins followed by 13C-isoleucine addition and measured after 1 hr by MS/MS analysis; format: functional, cell-based; details: hepatocyte
[2] = Reduction of 2-Methylcitric acid in human hepatocytes derived from methylmalonic acidemia patient at 30 uM pretreated for 30 mins followed by 13C-isoleucine addition and measured after 1 hr by MS/MS analysis relative to control; format: functional, Hepatocyte; parameters: scale not given: the % may be the effect or the level left; details: time 90 min, 1.5 h
[3] = Reduction of CoASH in human hepatocytes derived from propionic acidemia patient pretreated for 30 mins followed by 13C-isoleucine addition and measured after 1 hr by MS/MS analysis; format: functional, cell-based; details: hepatocyte
[4] = Reduction of CoASH in human hepatocytes derived from propionic acidemia patient at 30 uM pretreated for 30 mins followed by 13C-isoleucine addition and measured after 1 hr by MS/MS analysis relative to control; format: functional, Hepatocyte; parameters: scale not given: the % may be the effect or the level left; details: time 90 min, 1.5 h
[5] = Drug metabolism in mouse hepatocytes assessed as formation of 2,2-dimethylbutanoic acid-CoA incubated for 1 hrs by MS/MS analysis; format: ADME, cell-based; details: Hepatocyte
[6] = Drug metabolism in Beagle dog hepatocytes assessed as formation of 2,2-dimethylbutanoic acid-CoA incubated for 1 hrs by MS/MS analysis; format: ADME, cell-based; details: Canis lupus familiaris, Hepatocyte
[7] = Drug metabolism in mini-pig hepatocytes assessed as formation of 2,2-dimethylbutanoic acid-CoA incubated for 1 hrs by MS/MS analysis; format: ADME, cell-based, Sus scrofa domesticus; details: Sus scrofa, Hepatocyte
[8] = Protein binding in Gottingen minipig plasma at 40 uM incubated for 4 hrs by equilibrium dialysis; format: ADME, cell-free, Sus scrofa domesticus; details: pig, read-out: PPB (converted)
[9] = Ratio of drug level in erythrocyte to plasma in Sprague-Dawley rat; format: ADME; details: erythrocytes and plasma
[10] = Cmax in CD1 mouse at 30 mg/kg, po; format: ADME, organism-based; parameters: route oral, dose 30 mg/kg; details: in vivo
[11] = AUC (0 to infinity) in CD1 mouse at 300 mg/kg, iv; format: ADME, organism-based; parameters: route intravenous, time infinity, dose 300 mg/kg; details: in vivo
[12] = Tmax in Sprague-Dawley rat at 10 mg/kg, po; format: ADME, organism-based; details: in vivo
[13] = Half life in Sprague-Dawley rat at 10 mg/kg, iv; format: ADME, organism-based; details: in vivo
[14] = AUC (0 to infinity) in Sprague-Dawley rat at 10 mg/kg, po; format: ADME, organism-based; parameters: time infinity, route oral, dose 10 mg/kg; details: in vivo
[15] = AUC (0 to infinity) in Sprague-Dawley rat at 50 mg/kg, po; format: ADME, organism-based; parameters: time infinity, route oral, dose 50 mg/kg; details: in vivo
[16] = AUC (0 to infinity) in Sprague-Dawley rat at 200 mg/kg, po; format: ADME, organism-based; parameters: route oral, time infinity, dose 200 mg/kg; details: in vivo
[17] = test system: Hepatocyte; test: Cytotoxicity against minipig hepatocytes assessed as reduction in cell viability using radiolabeled compound; format: cell-based, Sus scrofa domesticus; details: pig
[18] = Drug metabolism in Sprague-Dawley rat plasma assessed as HST5040-glucuronide metabolite formation at 10 mg/kg administered as single dose by LC/MS analysis; format: ADME, organism-based; details: in vivo
[19] = Drug metabolism in Gottingen minipig plasma assessed as HST5040-glycine metabolite formation at 10 mg/kg administered as single dose by LC/MS analysis; format: ADME, organism-based, Sus scrofa domesticus; details: pig, in vivo
[20] = Drug metabolism in human hepatocytes assessed as beta-oxidation by measuring phase1 metabolite formation at 50 uM measured after 4 hrs; format: ADME, cell-based, Hepatocyte
[21] = Drug metabolism in Sprague-Dawley rat assessed as beta-oxidation by measuring phase1 metabolite formation at 10 mg/kg administered single dose using radiolabeled compound; format: ADME, organism-based; details: in vivo
[22] = target: T1, Cytochrome P450 3A4 (Homo sapiens, UniProt P08684); test: Direct inhibition of CYP3A4 in human liver microsomes using testosterone as substrate; format: ADME
[23] = target: T2, Cytochrome P450 2B6 (Homo sapiens, UniProt P20813); test: Time-dependent inhibition of CYP2B6 in human liver microsomes using bupropion as substrate preincubated for 30 mins; format: ADME
T2 sequence (P20813 whole entry): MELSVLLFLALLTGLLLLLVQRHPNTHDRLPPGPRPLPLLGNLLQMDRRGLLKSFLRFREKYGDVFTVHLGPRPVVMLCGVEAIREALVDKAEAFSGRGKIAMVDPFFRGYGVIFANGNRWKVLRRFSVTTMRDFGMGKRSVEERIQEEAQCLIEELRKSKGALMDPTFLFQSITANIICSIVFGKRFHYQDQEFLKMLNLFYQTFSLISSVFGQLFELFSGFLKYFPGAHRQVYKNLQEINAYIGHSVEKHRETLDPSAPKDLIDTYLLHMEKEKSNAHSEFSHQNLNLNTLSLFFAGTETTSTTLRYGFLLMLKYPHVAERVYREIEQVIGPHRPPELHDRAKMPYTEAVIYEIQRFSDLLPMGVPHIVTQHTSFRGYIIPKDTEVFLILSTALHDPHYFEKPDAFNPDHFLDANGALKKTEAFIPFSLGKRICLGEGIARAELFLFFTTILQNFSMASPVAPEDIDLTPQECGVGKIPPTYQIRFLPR

[24] = target: T1, Cytochrome P450 3A4; test: Time-dependent inhibition of CYP3A4 in human liver microsomes using midazolam as substrate preincubated for 30 mins; format: ADME
[25] = target: ATP-dependent translocase ABCB1 (Homo sapiens, UniProt P08183); test: Inhibition of human MDR1 assessed as reduction in NMQ transport at 24000 uM relative to control
[26] = target: T3, Solute carrier family 22 member 6 (Homo sapiens, UniProt Q4U2R8); test: Inhibition of human OAT1 assessed as reduction in OAT1-mediated tenofovir transport
T3 sequence (Q4U2R8 whole entry): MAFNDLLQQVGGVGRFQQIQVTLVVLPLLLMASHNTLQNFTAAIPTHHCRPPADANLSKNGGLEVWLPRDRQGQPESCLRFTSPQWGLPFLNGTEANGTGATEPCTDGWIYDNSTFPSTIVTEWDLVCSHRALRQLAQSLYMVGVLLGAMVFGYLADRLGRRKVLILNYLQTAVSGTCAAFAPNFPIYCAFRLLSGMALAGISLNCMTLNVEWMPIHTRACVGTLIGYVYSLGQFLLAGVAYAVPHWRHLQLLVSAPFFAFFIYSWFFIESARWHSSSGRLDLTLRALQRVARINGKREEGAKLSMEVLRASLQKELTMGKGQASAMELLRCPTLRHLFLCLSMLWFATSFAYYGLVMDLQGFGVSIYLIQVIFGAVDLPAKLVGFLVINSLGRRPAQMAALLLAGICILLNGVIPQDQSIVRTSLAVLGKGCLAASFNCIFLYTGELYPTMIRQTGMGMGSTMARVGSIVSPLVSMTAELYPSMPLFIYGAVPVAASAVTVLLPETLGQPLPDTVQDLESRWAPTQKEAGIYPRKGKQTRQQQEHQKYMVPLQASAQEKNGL

[27] = Induction of toxicity in minipig assessed as increase in number of cells with cytoplasmic vacuoles in renal tubules at >=50 mg/kg/day; format: organism-based, Sus scrofa domesticus; details: pig, in vivo
[28] = Induction of toxicity in minipig assessed as increase in vacuole size in the epithelial cells of renal tubules at >=50 mg/kg; format: organism-based, Sus scrofa domesticus; details: pig, in vivo
[29] = Induction of toxicity in minipig assessed as increase in albumin to […] ratio at 300 mg/kg/day; format: organism-based, Sus scrofa domesticus; details: pig, in vivo
[30] = target: Solute carrier family 22 member 1 (Homo sapiens) (UniProt O15245); test: Inhibition of human OCT1 assessed as reduction in OCT1-mediated metformin transport at 14900 uM relative to control
Chain of Solute carrier family 22 member 1 (Homo sapiens) (O15245 whole entry, looked up): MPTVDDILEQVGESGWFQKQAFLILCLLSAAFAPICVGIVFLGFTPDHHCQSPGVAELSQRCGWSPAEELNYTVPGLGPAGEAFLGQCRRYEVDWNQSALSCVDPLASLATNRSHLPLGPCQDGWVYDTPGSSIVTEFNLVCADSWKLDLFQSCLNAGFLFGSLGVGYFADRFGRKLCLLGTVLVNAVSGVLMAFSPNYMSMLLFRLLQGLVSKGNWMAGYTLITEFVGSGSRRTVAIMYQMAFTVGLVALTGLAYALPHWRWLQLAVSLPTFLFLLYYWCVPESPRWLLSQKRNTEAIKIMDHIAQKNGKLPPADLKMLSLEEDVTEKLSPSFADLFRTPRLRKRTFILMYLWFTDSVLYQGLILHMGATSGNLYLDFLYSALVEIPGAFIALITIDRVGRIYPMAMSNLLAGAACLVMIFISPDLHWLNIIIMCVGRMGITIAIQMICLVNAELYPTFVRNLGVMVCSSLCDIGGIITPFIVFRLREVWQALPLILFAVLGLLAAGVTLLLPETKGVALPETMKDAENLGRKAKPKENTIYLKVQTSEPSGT

T1 sequence (P08684 whole entry): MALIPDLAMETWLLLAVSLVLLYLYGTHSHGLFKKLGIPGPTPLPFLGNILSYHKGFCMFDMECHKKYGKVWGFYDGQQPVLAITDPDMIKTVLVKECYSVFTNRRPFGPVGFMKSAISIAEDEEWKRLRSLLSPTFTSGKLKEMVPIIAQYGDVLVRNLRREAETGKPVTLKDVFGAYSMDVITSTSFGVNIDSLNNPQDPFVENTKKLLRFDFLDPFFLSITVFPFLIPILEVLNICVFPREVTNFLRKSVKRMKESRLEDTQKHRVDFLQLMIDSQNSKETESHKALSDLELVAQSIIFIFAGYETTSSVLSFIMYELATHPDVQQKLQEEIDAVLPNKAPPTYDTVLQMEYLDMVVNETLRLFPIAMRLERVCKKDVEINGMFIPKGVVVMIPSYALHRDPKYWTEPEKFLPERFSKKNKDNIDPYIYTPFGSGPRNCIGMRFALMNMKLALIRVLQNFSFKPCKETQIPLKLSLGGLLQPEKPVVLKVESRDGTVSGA
Chain of ATP-dependent translocase ABCB1 (P08183 whole entry): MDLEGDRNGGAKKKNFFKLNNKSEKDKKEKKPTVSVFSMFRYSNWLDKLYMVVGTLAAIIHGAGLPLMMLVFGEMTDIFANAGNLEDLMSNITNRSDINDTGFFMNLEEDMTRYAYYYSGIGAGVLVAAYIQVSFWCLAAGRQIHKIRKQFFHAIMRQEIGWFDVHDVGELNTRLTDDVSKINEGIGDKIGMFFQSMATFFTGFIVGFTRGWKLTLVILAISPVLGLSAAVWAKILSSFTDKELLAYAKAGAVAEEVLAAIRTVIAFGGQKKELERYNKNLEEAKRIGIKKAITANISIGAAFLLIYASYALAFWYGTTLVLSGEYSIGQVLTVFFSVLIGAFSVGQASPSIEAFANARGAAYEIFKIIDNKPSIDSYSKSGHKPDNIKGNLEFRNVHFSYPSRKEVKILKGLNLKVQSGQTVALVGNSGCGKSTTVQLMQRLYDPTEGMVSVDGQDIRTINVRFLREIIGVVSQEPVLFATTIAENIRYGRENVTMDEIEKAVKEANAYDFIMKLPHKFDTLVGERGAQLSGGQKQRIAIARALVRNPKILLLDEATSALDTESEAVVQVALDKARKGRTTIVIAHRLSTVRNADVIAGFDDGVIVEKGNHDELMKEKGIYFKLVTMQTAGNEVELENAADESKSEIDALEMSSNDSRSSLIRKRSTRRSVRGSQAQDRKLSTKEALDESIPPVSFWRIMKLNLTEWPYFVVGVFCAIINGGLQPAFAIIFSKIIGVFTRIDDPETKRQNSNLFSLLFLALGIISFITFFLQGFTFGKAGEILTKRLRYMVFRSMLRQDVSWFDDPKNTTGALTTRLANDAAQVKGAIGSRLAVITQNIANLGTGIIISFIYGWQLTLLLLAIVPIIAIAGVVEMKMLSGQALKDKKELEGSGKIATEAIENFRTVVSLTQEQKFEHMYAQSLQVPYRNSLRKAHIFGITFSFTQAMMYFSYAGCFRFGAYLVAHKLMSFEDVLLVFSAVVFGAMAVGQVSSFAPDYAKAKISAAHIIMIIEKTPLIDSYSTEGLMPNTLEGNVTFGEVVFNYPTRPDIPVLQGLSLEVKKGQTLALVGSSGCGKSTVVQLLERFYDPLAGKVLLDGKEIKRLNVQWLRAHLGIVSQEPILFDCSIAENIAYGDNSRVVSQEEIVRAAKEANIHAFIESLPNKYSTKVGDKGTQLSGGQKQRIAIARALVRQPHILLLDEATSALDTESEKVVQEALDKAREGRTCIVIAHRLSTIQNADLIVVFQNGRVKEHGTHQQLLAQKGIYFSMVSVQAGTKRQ

CCC(C)(C)C(=O)O [DIMEBUTIC ACID]
EC50 [1]: 4.8 µM
Activity [2]: -66.7%
EC50 [3]: 11.6 µM
Activity [4]: -31.3%
EC50 [5]: 130 µM
EC50 [6]: 60 µM
EC50 [7]: 8.3 µM
fraction unbound at 4 h, 40 µM [8]: 0.55
Kp [9]: 0.649
Cmax [10]: 33700 ng/mL
AUC(0-inf) [11]: 1250 µg·h/mL
Tmax [12]: 0.25 h
half-life [13]: 3.93 h
AUC(0-inf) [14]: 5.52 µg·h/mL
AUC(0-inf) [15]: 33.1 µg·h/mL
AUC(0-inf) [16]: 244 µg·h/mL
Activity [17]: Non-Toxic
Drug metabolism [18]: Metabolite_Detected
Drug metabolism [19]: Metabolite_Detected
Drug metabolism [20]: Metabolite_Notdetected
Drug metabolism [21]: Metabolite_Notdetected
IC50 [22]: > 10000 µM
IC50 [23]: > 10000 µM
IC50 [24]: > 10000 µM
inhibition (INH) [25]: Not Active
IC50 [26]: 3860 µM
Activity [27]: Toxic
Activity [28]: Toxic
Activity [29]: Toxic
inhibition [30]: inactive
